Laboratory results reported in patent US20080125432A1 (Devgen NV, priority 2004, published 2008).
Read-outs that look alike come from different tables or passages of the source.

How the values were obtained:
[1] = biological target: T1, human Kv4.3/KChIP2.2 potassium channel (Homo sapiens, UniProt Q9UK17); experiment: Whole cell patch clamp, CHO-K1 cells stably expressing human Kv4.3/KChIP2.2; format: cell-based; details: CHO-K1
T1 construct: expressed in transfected cells
T1 sequence (Q9UK17 1-655): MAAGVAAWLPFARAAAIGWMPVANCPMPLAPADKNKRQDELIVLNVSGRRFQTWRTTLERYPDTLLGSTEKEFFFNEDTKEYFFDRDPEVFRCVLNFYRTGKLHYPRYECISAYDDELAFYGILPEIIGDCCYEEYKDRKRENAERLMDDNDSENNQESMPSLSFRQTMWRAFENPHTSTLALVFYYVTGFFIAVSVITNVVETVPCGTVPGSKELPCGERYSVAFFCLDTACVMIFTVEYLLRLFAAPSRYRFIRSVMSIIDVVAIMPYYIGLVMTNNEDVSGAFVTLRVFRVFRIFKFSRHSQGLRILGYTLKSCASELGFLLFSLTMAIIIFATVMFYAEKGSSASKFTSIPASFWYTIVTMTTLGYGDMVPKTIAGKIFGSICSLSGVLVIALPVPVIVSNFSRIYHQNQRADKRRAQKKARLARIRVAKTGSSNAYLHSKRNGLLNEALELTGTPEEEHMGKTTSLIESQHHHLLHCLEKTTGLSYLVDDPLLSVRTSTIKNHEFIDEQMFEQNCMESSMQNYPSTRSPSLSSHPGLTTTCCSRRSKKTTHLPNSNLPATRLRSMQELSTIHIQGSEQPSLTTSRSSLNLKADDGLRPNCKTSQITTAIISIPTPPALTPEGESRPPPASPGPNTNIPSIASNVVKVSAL
Method: For this experiment, a recombinant CHO-K1 cell line stably expressing the human Kv4.3/KChIP2.2 potassium channel was used. The cells used for this experiment were kept in continuous culture under standard conditions (37° C., air supplemented with 7% CO2). The CHO-K1 Kv4.3/KChIP2.2 cells were kept in Iscove s modified DMEM (Dulbecco's Modified Eagle's Medium) medium (IMEM) supplemented with 100 U/ml Penicillin, 100 μg/ml Streptomycin, 7% fetal calf serum (FCS), 2.5 μg/ml amphotericin, 400 μg/ml G418, and 400 μg/ml Zeocin™. Cells were passed every 3-4 days after detachment using a Trypsin solution. The quality of the cultured cells was guaranteed by vitality and contamination tests. The culture of the cells was performed as described in protocol D hereunder.
10 mM stock solutions of the compounds were prepared in DMSO. Solutions of the compounds were prepared by dilution of stock solution in bath solution. If the required stock solution volume was theoretically below 1 μl, bath solutions with higher compound concentration were used for dilution. The maximal DMSO concentration during experiments was 0.1% (v/v).
Activity of the human Kv4.3/KChIP2.2 channel was investigated using the patch clamp technique in its whole cell mode. This means that the current needed for clamping the whole cell expressing the K^+-channel protein to a specific potential was measured. Experiments were performed using a patch clamp set-up. Technical equipment needed for manipulation of the cells was placed on a vibration-isolated table and shielded with a Faraday cage to minimize electrical noise. The amplifier and control system were placed in a rack outside the Faraday cage. The system consisted of an EPC9 or EPC10 patch clamp amplifier (HEKA, Lambrecht, Germany), and the perfusion system DADVC8 (ALA Scientific, New York, USA) controlled by the Pulse software package (HEKA, Lambrecht, Germany) installed on a personal computer. The pipettes used for patch clamping were made of borosilicate glass.
Measurements were performed at room temperature (20-25° C.). In each experiment (i.e. each cell) only one concentration of the compounds was investigated no cumulative dosages were performed. Each cell acted as its own control. […]
Between voltage pulses the cell was clamped to a holding potential of −80 mV (inside). The test protocols are illustrated in FIG. 1 and Table 4. The test protocol illustrated in FIG. 1a was used to characterize the properties of the Kv4.3/KChIP2.2 channel and to check the quality of the individual patch clamp experiment (voltage control). […] Each test protocol consisted of 4 segments.
After the whole cell configuration was established a current-voltage curve (IV activation 1; FIG. 1a and Table 4a) was recorded under constant superfusion with bath solution to check for Kv4.3/KChIP2.2 expression and the quality of the individual patch clamp experiment (voltage control). Subsequently, 14 test pulses (series 1; FIG. 1b and Table 4b) were applied at 0.1 Hz under constant superfusion with bath solution. The protocol was initiated by a voltage jump to 100 mV (400 ms) to achieve full inactivation. Then the Kv4.3/KChIP2.2 channels were transferred to the open state by depolarization to +40 mV for 300 milliseconds (activation). Only cells generating current amplitudes between 1 nA and 50 nA were used for the experimental procedure. No or negligible rundown was observed.
Then, 36 test pulses (series 2) were applied at 0.1 Hz under constant superfusion with the compound dissolved in bath solution. Finally, another current-voltage curve was recorded in the presence of the compounds (IV activation 2).
Three different types of analysis were used: Inhibition at the peak current, inhibition of translocated charge and inhibition 75 ms after activation at +40 mV (sustained current). The peak current/charge/current at 75 ms was determined using the online analysis tool of the HEKA pulse software package. […]

[2] = remaining current measured after application of the compound and relative to the blank, read-out: Kv4.3 charge in %
[3] = remaining peak height measured after application of the compound and relative to the blank, read-out: Kv4.3 peak in %

| SMILES | remaining activity at 1 µM [1, 2] [%] | remaining activity at 1 µM [1, 3] [%] | melting point [°C] |
| --- | --- | --- | --- |
| COc1ccccc1Nc1nc(C)c(C(=O)NCc2ccccc2)s1 [Compound 124, 2-(2-methoxy-phenylamino)-4-methyl-thiazole-5-carboxylic acid benzylamide] | 90 | 95 | 153.6 to 156.2 |
| COc1ccccc1Nc1nc(C)c(C(=O)NCc2ccc(CNC(C)=O)cc2)s1 [Compound 96, 2-(2-methoxy-phenylamino)-4-methyl-thiazole-5-carboxylic acid 4-(acetylamino-methyl)-benzylamide] | 85 | 99 | 199.7 to 200.3 |
| COc1ccccc1Nc1nc(C)c(C(=O)NCc2ccc(-c3cccs3)cc2)s1 [Compound 103, 2-(2-methoxy-phenylamino)-4-methyl-thiazole-5-carboxylic acid 4-thiophen-2-yl-benzylamide] | 64 | 89 | 195.6 to 198.6 |
| COc1ccccc1Nc1nc(C)c(C(=O)N2Cc3ccccc3C2)s1 [Compound 84, (1,3-dihydro-isoindol-2-yl)-[2-(2-methoxy-phenylamino)-4-methyl-thiazol-5-yl]-methanone] | 87 | 99 | 147.6 to 149.6 |
| COc1ccccc1Nc1nc(C)c(C(=O)N2CCC(n3c(=O)[nH]c4ccccc43)CC2)s1 [Compound 170, 1-{1-[2-(2-methoxy-phenylamino)-4-methyl-thiazole-5-carbonyl]-piperidin-4-yl}-1,3-dihydro-benzoimidazol-2-one] | 90 | 97 | > 250 |
| CCOC(=O)c1cccc(Nc2nc(C)c(C(=O)N[C@H]3CCC[C@@H]3OCc3ccccc3)s2)c1 [Compound 89, 3-[5-((1S,2S)-2-benzyloxy-cyclopent-1-ylcarbamoyl)-4-methyl-thiazol-2-ylamino]-benzoic acid ethyl ester] | 55 | 93 | 145.7 to 148 |
| COc1ccccc1Nc1nc(C)c(C(=O)N[C@H](C(=O)O)c2ccccc2)s1 [Compound 114, (S)-{[2-(2-methoxy-phenylamino)-4-methyl-thiazole-5-carbonyl]-amino}-phenyl-aceticacid] | 88 | 87 | 259.6 to 262 |
| Cc1nc(NCc2ccccc2)sc1C(=O)N[C@H]1CCC[C@@H]1OCc1ccccc1 [Compound 211, 2-benzylamino-4-methyl-thiazole-5-carboxylic acid ((1S,2S)-2-benzyloxycyclopent-1-yl) amide] | 86 | 98 | 185.1 to 185.8 |
| COc1ccccc1Nc1nc(C)c(C(=O)NC2Cc3ccccc3C2)s1 [Compound 83, 2-(2-methoxy-phenylamino)-4-methyl-thiazole-5-carboxylic acid indan-2-ylamide] | 77 | 97 | 143.2 to 147.6 |
| COc1ccccc1Nc1nc(C)c(C(=O)NCc2ccc(C)cc2)s1 [Compound 142, 2-(2-methoxy-phenylamino)-4-methyl-thiazole-5-carboxylic acid 4-methyl-benzylamide] | 74 | 80 | 166.8 to 168.3 |
| COc1ccccc1Nc1nc(C)c(C(=O)N2CCCCC2Cc2ccccc2)s1 (stereo not drawn) [Compound 86, (2-benzyl-piperidin-1-yl)-[2-(2-methoxy-phenylamino)-4-methyl-thiazol-5-yl]-methanone] | 79 | 102 | 93.2 to 95.6 |
